Values of other authors, collected in US20060142288A1, “Combinations and methods for headaches” (priority 2004, published 2006).

Legend:
[1] = 13.5 mg/kg/day or ~1 g per day
[2] = 650 mg/day, migraine patients
[3] = 500 mg daily, six year trial
canine COX-3 = molecular target: T1, canine COX-3 (Canis lupus familiaris, UniProt Q8HZR1); conditions: canine COX-3 compared with murine COX-1 and COX-2
T1 sequence (Q8HZR1 1-633 isoform Q8HZR1-2): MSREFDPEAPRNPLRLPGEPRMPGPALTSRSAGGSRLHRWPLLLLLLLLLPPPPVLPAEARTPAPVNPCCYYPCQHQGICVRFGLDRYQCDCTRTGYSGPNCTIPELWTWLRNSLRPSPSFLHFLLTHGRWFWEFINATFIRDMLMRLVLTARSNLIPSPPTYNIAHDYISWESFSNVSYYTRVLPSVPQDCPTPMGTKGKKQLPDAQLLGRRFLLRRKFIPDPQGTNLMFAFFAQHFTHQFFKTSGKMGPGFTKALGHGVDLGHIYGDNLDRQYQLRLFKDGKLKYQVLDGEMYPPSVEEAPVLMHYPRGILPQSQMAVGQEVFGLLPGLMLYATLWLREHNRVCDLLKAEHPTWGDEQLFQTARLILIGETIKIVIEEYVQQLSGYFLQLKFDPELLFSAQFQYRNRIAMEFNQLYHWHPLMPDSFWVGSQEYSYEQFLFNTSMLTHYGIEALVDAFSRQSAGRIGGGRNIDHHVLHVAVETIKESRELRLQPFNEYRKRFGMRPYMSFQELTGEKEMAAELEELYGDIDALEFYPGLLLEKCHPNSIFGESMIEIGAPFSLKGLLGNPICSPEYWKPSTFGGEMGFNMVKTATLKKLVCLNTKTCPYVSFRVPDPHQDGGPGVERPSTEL

[4] = ASA 500 mg TID, metoprolol in the same study

CC(=O)Oc1ccccc1C(=O)O [ASA, acetylsalicyclic acid]
frequency, severity and duration of migraine attacks [1]: significantly decrease
patients with a reduction of more than 50% in headache frequency [2]: 9 of 12
reduction of the incidence of migraine [3]: 30%
overall migraine frequency (500 mg TID, p<0.001): reduced significantly
subjects with a reduction of attacks >50% (number of subjects) [4]: 3 of 22
subjects with a reduction of attacks >50% (percent of subjects) [4]: 14%

CC(=O)Nc1ccc(O)cc1 [acetaminophen]
selective inhibition of COX-3 (canine COX-3): selectively inhibit

Cc1cc(=O)n(-c2ccccc2)n1C [antipyrine]
selective inhibition of COX-3 (canine COX-3): selectively inhibit

Cc1c(N(C)CS(=O)(=O)[O-])c(=O)n(-c2ccccc2)n1C.[Na+] [dipyrone]
selective inhibition of COX-3 (canine COX-3): selectively inhibit

CCOc1ccc(NC(C)=O)cc1 [phenacetin]
selective inhibition of COX-3 (canine COX-3): selectively inhibit
